Test results as given in US11318190B2, “Methods and compositions for treating liver disease” (UNITED STATES GOVERNMENT AS REPRESENTED BY THE DEPARTMENT …, priority 2017, dated 2022).
Entries after “also recorded” stand apart in the source; their conditions may differ.

Tests used:
dnTGF-βRII mice = dnTGF-βRII mice 32-34 wk (late stage PBC model) treated 1 wk by osmotic minipump; assay type: in vivo, mouse; settings: for intrahepatic bile duct mass (IBDM, CK-19): 1 wk minipump
Protocol: Briefly, we used wild-type (WT), dnTGFβRII 12 wk and dnTGFβRII 34 wk mice treated with control or SR antagonist (SCT 5-27) minipump (10 μg/kg/day) for 1 wk. Hepatic damage was shown by H&E. IBDM and cholangiocyte proliferation were measured by immunohistochemistry for CK-19 and Ki67, respectively. Biliary apoptosis was evaluated by TUNEL staining. Senescence was measured in cholangiocytes by immunofluorescence for CCL2 or p16 co-stained with CK-19 (to image bile ducts) and SA-β-Galactosidase activity. Hepatic fibrosis was assessed by qPCR for collagen-1a and α-SMA in total liver, and quantification of Sirius Red staining. Hepatic stellate cell (HSC) activation was evaluated by immunofluorescence (IF) for Syp-9. HSC senescence was evaluated by IF for CCL2 or p16 co-stained with desmin (to visualize HSCs). Secretin levels in serum and bile were measured by EIA. Bile and serum were obtained from human control, early PBC and advanced PBC patients, and secretin was evaluated by EIA.
All animal procedures were performed according to protocols approved by the Baylor Scott & White Health IACUC Committee. Transgenic mice expressing a dominant-negative form of the human transforming growth factor-beta receptor II (dnTGF-βRII) were obtained from Dr. M. Eric Gershwin at UC Davis Health (Sacramento, Calif.), and background-matched wild-type (WT, strain C57BL/6) mice were purchased from Charles River Laboratories (Wilmington, Mass.); the breeding colony is established in our animal facility. Animals were maintained in micro-isolator cages in a temperature-controlled environment with 12/12-hr light/dark cycles and fed ad libitum standard chow with free access to drinking water. Studies were performed in 12 wk-old WT mice, and 12 wk-old (mimic early stage PBC) and 32 wk-old (mimic late stage PBC) female and male dnTGF-βRII mice (25-30 gm) that were treated with either saline, secretin (Sct; 2.5 nmoles/kg body weight per day; Bachem, Torrance, Calif.) or the secretin receptor (SR) antagonist, Sec 5-27 (10 μg/kg body weight per day; Thermo Fisher Scientific, Waltham, Mass.) for 1 wk by intraperitoneally implanted osmotic minipump. Liver tissue samples and blocks (formalin-fixed, paraffin-embedded and OCT-embedded), serum, bile, cholangiocytes, and cholangiocyte supernatants (after incubation at 37° C. for 4 hr) were collected as described.
Hematoxylin and eosin (H&E) staining was performed in formalin-fixed, paraffin-embedded liver sections (4-5 μm, 3 samples from 3 different animals) to determine liver morphology. H&E stained liver sections were evaluated by a board-certified pathologist to assess the degree of lobular damage, hepatic necrosis and portal inflammation. At least 10 different portal areas were evaluated for each parameter. Liver sections were examined in a coded fashion by BX-51 light microscopy (Olympus, Tokyo, Japan) equipped with a camera (See, Mancinelli, R et al., Ischemia reperfusion of the hepatic artery induces the functional damage of large bile ducts by changes in the expression of angiogenic factors. Am J Physiol Gastrointest Liver Physiol 2015; 309:G865-873 (2015); Taffetani S et al., Prolactin stimulates the proliferation of normal female cholangiocytes by differential regulation of Ca2+-dependent PKC isoforms, BMC Physiol 7:6 (2007)).
Serum levels of alkaline phosphatase (ALP) and γ-glutamyltransferase (γGT) are commonly used to diagnose PBC (Heathcote, E J, Management of primary biliary cirrhosis. The American Association for the Study of Liver Diseases practice guidelines, Hepatology 31:1005-1013 (2000)); therefore, were measured serum levels of ALP and γGT in mouse serum samples using the Alkaline Phosphatase Assay Kit and γ-Glutamyltransferase Activity Colorimetric Assay Kit, respectively (Abcam; Cambridge, Mass.).
Early stage PBC is identified by cholangiocyte proliferation, whereas late stage PBC is characterized by ductopenia. […]

large IMCLs = experiment: Large IMCLs treated with secretin with/without LY2109761, or with TGF-β1 (Example 2); assay type: cell-based, mouse; settings: secretin 10 nM, 12 hr
Source text: Cholangiocytes were obtained by immunoaffinity separation as described herein above, using a monoclonal antibody (a gift from Dr. R. Faris, Brown University, Providence, R.I.) that is expressed by all intrahepatic cholangiocytes. HSCs from the selected groups of mice were isolated by LCM as described previously in Wu, N et al., The secretin/secretin receptor axis modulates liver fibrosis through changes in transforming growth factor-beta1 biliary secretion in mice, Hepatology (Baltimore, Md.) 64(3):865-879 (2016). Briefly, frozen liver sections (n=3, 10 μm thick) were incubated overnight with an anti-desmin (a marker of stellate cells) antibody. Then, desmin-positive cells were dissected from the slides using a LCM system Leica LMD7000 (Buffalo Grove, Ill.) and were collected before RNA extraction with the Arcturus PicoPure RNA isolation kit (Thermo Fisher Scientific CO, Mountain View, Calif.). The in vitro studies were performed in: (I) immortalized murine cholangiocyte lines derived from large cholangiocytes lining large ducts (IMCLs); and (ii) human hepatic stellate cell lines (HHSteCs; ScienCell Research Laboratories, Carlsbad, Calif.).
WT mice were treated for 1 wk with saline or secretin (Sct; 2.5 nmoles/kg body weight per day) before collecting cholangiocytes, HSCs and cholangiocyte supernatants. The levels of TGF-β1 were measured in short-term (6-hour) cultures of cholangiocytes by ELISA kits. Subsequently, we measured: (i) liver fibrosis by immunofluorescence for Col1a1 in liver sections and real-time PCR for TGF-β1, TFG-β1R, Col1a1, α-SMA and Fn1 in cholangiocytes and HSCs; and (ii) cellular senescence by immunofluorescence in liver sections for p16 and real-time PCR for p16 and p21 in cholangiocytes and HSC.
Biliary supernatants were obtained from normal and BDL WT mice and Sct^−/−, SR^−/− and Sct^−/−/SR^−/− BDL mice as well as normal WT mice treated with saline or secretin. HHSteCs were incubated with the aforementioned biliary supernatants (containing different levels of TGF-β1) for 24 hr (in the absence or presence of LY2109761) before measuring the expression of senescence and fibrosis genes by real-time PCR. Furthermore, HHSteCs were incubated with the supernatant of large IMCLs treated for 0.2% bovine serum albumin (basal) or secretin (10 nM) with/without LY2109761 for 6 hr before measuring the mRNA expression of fibrosis and senescence genes. To provide direct evidence that TGF-β1 directly modulates fibrosis and senescence of IMCLs and HHSteCs, these cells were stimulated with TGF-β1 (10 nM) for 24 hr before measuring the expression of PCNA as well as fibrosis and senescence genes by real-time PCR.

[1] = dnTGF-βRII 32/34 wk, vs saline treated

**Q.** How did the “biliary senescence (p16, p18, p21, CCL2)” value (dnTGF-βRII mice; dnTGF-βRII 32/34 wk) turn out when secretin [Sct] was run?
**A.** The value was “reduced”.

**Q.** And the “cholangiocyte apoptosis (TUNEL)” value (dnTGF-βRII mice; dnTGF-βRII 32/34 wk)?
**A.** The value was “reduced”.

**Q.** What about the “collagen content / deposition (Sirius Red), hepatic fibrosis” value (dnTGF-βRII mice; dnTGF-βRII 32/34 wk) of the same substance?
**A.** Its value is “decreased; also recorded: reduced”.

**Q.** And the “Sct, SR, CFTR and AE2 expression” value (dnTGF-βRII mice; [1])?
**A.** The value was “increased expression”.

**Q.** What about the “intrahepatic bile duct mass (IBDM, CK-19)” value (dnTGF-βRII mice; [1]) of the same substance?
**A.** Its value is “increased”.

**Q.** And the “intrahepatic bile duct mass (IBDM, CK-19)” value (dnTGF-βRII mice; dnTGF-βRII 32/34 wk, vs saline treated, listed as secretin)?
**A.** Its value is “increased biliary mass in the late stage PBC mice back to normal levels”.

**Q.** And the “collagen content / deposition (Sirius Red), hepatic fibrosis” value (dnTGF-βRII mice; dnTGF-βRII 32/34 wk, listed as secretin)?
**A.** The value was “significantly reduced”.

**Q.** And the “HSC activation (SYP-9)” value (dnTGF-βRII mice; dnTGF-βRII 34 wk)?
**A.** Its value is “reduced”.

**Q.** And the “biliary growth / cholangiocyte proliferation” value (dnTGF-βRII mice; dnTGF-βRII 34 wk)?
**A.** Its value is “increased”.

**Q.** And the “liver damage (H&E)” value (dnTGF-βRII mice; dnTGF-βRII 34 wk)?
**A.** The value was “ameliorate; also recorded: reduced”.

**Q.** What about the “secretin levels (serum; serum and bile)” value (dnTGF-βRII mice; dnTGF-βRII 34 wk) of the same substance?
**A.** Its value is “increased”.

**Q.** And the “Liver inflammation, Kupffer cell number” value (dnTGF-βRII mice; dnTGFβRII 12 and 34 wk as printed)?
**A.** The value was “reduced”.

**Q.** What about the TBA levels (dnTGF-βRII mice; dnTGFβRII 34 wk) of the same substance?
**A.** Its TBA levels is “reduced”.

**Q.** What about the “serum levels of ALP and γGT” value (dnTGF-βRII mice; late stage PBC model) of the same substance?
**A.** The value was “reduced”.

**Q.** And the “secretion of TGF-β1 and expression of fibrosis and senescence genes of large IMCLs” value (large IMCLs)?
**A.** Its value is “increased”.
